# How the values were obtained:
# [1] = test system: PDE1 in striatal slices; test: Striatal slice cGMP levels after K+ depolarization; assay type: cell-based; conditions: 1 μM compound preincubation, 1-minute high K+ depolarization
# Protocol: FIG. 1 illustrates the effect of PDE1 inhibition on striatal cGMP levels. Striatal slices were preincubated with either vehicle or compound, followed by a 1-minute stimulation with high K+ or vehicle. cGMP levels were normalized to baseline levels for comparison. […] PDE1 inhibition by 1 μM ITI-041 or 1 μM ITI-214 in the presence of K+ depolarization (striped bars).
# Striatal tissue slice preparations were used to further study regulation of PDE1 by intracellular calcium concentration. The striatal slice preparation maintains a portion of the circuitry of the intact striatum including interneurons, nerve terminals from cortical and nigral neuronal inputs, and medium spiny neurons, which account for the majority (95%) of neurons. Depolarization of the cell membrane by increasing external potassium (K+) concentration is a well-established method of stimulating striatal slices, particularly to trigger release of neurotransmitters such as glutamate from the nerve terminals. Under these conditions, both voltage gated calcium channels and NMDA receptors are expected to open, allowing an influx of calcium into the cells. The increase in intracellular calcium can both activate PDE1 in the medium spiny neurons and activate nitric oxide synthase (NOS) in the interneurons via calcium-calmodulin binding. […]
# [2] = test system: Ca2+/calmodulin-dependent protein kinase II (CaMKII); test: CaMKII phosphorylation (Western blotting); assay type: cell-based; conditions: ionomycin 10 μM, in Krebs buffer
# Protocol: (§1) FIG. 2 illustrates that increased Ca2+ is sufficient to unmask the active site of PDE1 and allow PDE1 inhibitor binding to the active site therefore increasing cGMP. Increased intracellular calcium is sufficient to increase cGMP levels in the presence of PDE1 inhibitor.
# (§2) The calcium ionophore ionomycin was used to control intracellular calcium concentrations in the absence of depolarization. Ionomycin (10 μM, in Krebs buffer) increased intracellular calcium, as confirmed by increased calcium-sensitive phosphorylation of Ca2+/calmodulin-dependent protein kinase II (CaMKII), as shown in FIG. 2A. […] Elimination of extracellular calcium by replacing the calcium chloride in the Krebs solution with 3 mM EGTA prevented the elevation in cGMP seen with PDE1 inhibition and ionomycin.
# [3] = test system: PDE1 in striatal slices; test: Striatal slice cGMP levels with ionomycin; assay type: cell-based; conditions: ionomycin 10 μM alone, in Krebs buffer
# Protocol: as §1, §2
# [4] = molecular target: Compound 2 binding to PDE1 in mouse cortex; test: EGTA titration of Compound 2 binding (calcium dependency)
# Protocol: FIG. 4 illustrates Ca^2+-dependent binding of Compound 2, as defined in Example 1, to mouse cortex. Binding of the radioligand is prevented in the presence of EGTA, a specific chelator of calcium
# In a further study, binding of Compound 2 (1.5 nM) to mouse cortex was titrated with different concentration of the calcium chelator EGTA to determine the calcium dependency of the ligand binding. […] Levels of binding activity remaining in the presence of excess (200 uM) EGTA was approximately 5% relative to the binding levels in the absence of EGTA.
# [5] = molecular target: PDE8A (Homo sapiens, UniProt O60658); test: PDE panel inhibitory constant (Ki) determination; assay type: biochemical
# Protocol: (§3) Inhibitory constant (Ki) values for Compound 1 were determined against a full panel of phosphodiesterase family members. […] In contrast, potency of Compound 1 for PDE1 A, B and C is roughly equivalent.
# [6] = PDE panel inhibitory constant (Ki) determination; assay type: biochemical; conditions: PDE1D
# Protocol: as §3
# [7] = molecular target: PDE1B (Homo sapiens, UniProt Q01064); test: PDE panel inhibitory constant (Ki) determination; assay type: biochemical
# Protocol: as §3
# [8] = molecular target: PDE1C (Homo sapiens, UniProt Q14123); test: PDE panel inhibitory constant (Ki) determination; assay type: biochemical
# Protocol: as §3
# [9] = molecular target: PDE3B (Homo sapiens, UniProt Q13370); test: PDE panel inhibitory constant (Ki) determination; assay type: biochemical
# Protocol: as §3
# [10] = molecular target: T1, PDE6; test: PDE panel inhibitory constant (Ki) determination; assay type: biochemical
# T1 construct: Ki; other: PDE6
# Protocol: as §3
# [11] = molecular target: T2, PDE1 (Bovine Brain); test: PDE panel inhibitory constant (Ki) determination; assay type: biochemical
# T2 construct: Ki; other: PDE1 (Bovine Brain)
# Protocol: as §3
# [12] = molecular target: PDE9A (Homo sapiens, UniProt O76083); test: PDE panel inhibitory constant (Ki) determination; assay type: biochemical
# Protocol: as §3
# [13] = molecular target: PDE5 (Homo sapiens, UniProt O76074); test: PDE panel inhibitory constant (Ki) determination; assay type: biochemical
# Protocol: as §3
# [14] = test system: PDE1 (Bovine Brain); test: PDE panel inhibitory constant (Ki) determination; assay type: biochemical
# Protocol: as §3
# [15] = molecular target: PDE10A (Homo sapiens, UniProt Q9Y233); test: PDE panel inhibitory constant (Ki) determination; assay type: biochemical
# Protocol: as §3
# [16] = test system: PDE6; test: PDE panel inhibitory constant (Ki) determination; assay type: biochemical
# Protocol: as §3
# [17] = molecular target: PDE2A (Homo sapiens, UniProt O00408); test: PDE panel inhibitory constant (Ki) determination; assay type: biochemical
# Protocol: as §3
# [18] = molecular target: PDE1A (Homo sapiens, UniProt P54750); test: PDE panel inhibitory constant (Ki) determination; assay type: biochemical
# Protocol: as §3
# [19] = molecular target: PDE7B (Homo sapiens, UniProt Q9NP56); test: PDE panel inhibitory constant (Ki) determination; assay type: biochemical
# Protocol: as §3
# [20] = molecular target: PDE11A (Homo sapiens, UniProt Q9HCR9); test: PDE panel inhibitory constant (Ki) determination; assay type: biochemical
# Protocol: as §3
# [21] = molecular target: T3, (Homo sapiens, UniProt Q08499); test: PDE panel inhibitory constant (Ki) determination; assay type: biochemical; conditions: PDE1D
# T3 construct: Ki; other: PDE1D
# Protocol: as §3
# [22] = molecular target: PDE4A (Homo sapiens, UniProt P27815); test: PDE panel inhibitory constant (Ki) determination; assay type: biochemical
# Protocol: as §3
# [23] = test system: PDE1 enzymes versus all other PDE families; test: Selectivity over full panel of phosphodiesterase family members; assay type: biochemical
# Protocol: as §3
# Chain of PDE10A (Q9Y233 whole entry, species assumed): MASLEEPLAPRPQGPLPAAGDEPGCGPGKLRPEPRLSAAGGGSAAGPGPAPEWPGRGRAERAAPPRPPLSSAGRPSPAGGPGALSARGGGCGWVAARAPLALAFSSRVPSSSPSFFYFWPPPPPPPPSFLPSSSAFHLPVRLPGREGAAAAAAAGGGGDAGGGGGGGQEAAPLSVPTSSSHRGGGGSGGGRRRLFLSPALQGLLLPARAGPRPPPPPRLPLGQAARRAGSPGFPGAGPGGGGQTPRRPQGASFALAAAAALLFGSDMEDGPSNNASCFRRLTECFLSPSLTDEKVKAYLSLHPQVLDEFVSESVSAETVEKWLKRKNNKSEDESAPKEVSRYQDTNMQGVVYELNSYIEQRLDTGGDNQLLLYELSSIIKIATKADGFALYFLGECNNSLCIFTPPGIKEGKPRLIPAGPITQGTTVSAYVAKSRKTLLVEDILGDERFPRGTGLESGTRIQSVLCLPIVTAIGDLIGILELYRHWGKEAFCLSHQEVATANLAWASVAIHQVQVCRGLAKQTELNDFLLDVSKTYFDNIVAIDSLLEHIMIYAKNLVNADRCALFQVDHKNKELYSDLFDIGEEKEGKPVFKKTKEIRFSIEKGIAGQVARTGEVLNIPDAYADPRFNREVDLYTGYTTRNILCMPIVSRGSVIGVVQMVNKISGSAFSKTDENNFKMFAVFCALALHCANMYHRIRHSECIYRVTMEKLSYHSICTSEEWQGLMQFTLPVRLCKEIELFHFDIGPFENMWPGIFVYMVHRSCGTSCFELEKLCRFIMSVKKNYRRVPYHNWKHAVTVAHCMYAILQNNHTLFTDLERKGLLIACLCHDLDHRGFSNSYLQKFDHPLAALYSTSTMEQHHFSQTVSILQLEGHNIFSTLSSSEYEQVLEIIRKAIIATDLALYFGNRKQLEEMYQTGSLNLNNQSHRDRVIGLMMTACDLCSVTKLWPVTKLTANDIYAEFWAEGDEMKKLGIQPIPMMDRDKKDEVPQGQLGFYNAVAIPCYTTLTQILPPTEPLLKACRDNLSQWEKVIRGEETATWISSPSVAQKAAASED
# Chain of PDE7B (Q9NP56 whole entry, species assumed): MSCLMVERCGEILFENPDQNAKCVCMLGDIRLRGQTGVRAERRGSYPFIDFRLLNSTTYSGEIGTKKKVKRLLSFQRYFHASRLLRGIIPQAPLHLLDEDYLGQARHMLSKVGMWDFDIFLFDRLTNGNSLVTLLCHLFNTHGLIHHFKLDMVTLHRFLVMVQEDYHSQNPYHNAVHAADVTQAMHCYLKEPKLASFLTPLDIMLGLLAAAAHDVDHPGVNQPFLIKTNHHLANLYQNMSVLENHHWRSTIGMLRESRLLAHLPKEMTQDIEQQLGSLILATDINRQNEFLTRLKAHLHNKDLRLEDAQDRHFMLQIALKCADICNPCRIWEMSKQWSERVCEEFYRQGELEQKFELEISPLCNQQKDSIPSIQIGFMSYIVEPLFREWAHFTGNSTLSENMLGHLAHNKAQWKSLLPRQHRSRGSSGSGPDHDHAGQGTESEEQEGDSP
# Chain of PDE9A (O76083 whole entry, species assumed): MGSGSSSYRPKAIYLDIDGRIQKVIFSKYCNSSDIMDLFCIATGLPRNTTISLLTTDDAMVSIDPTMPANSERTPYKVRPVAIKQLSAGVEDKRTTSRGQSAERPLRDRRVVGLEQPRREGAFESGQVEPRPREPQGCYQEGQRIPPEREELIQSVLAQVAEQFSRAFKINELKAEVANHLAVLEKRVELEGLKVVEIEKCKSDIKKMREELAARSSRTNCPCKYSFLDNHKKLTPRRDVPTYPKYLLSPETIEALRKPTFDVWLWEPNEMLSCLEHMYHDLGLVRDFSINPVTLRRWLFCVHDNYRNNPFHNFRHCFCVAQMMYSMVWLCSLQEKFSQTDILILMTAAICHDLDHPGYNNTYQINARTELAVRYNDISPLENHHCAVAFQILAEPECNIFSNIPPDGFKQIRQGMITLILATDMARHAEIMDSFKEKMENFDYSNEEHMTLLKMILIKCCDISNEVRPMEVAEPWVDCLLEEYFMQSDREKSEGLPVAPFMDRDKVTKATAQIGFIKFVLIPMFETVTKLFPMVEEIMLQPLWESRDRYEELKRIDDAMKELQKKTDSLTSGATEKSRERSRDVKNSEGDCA
# Chain of PDE1C (Q14123 whole entry, species assumed): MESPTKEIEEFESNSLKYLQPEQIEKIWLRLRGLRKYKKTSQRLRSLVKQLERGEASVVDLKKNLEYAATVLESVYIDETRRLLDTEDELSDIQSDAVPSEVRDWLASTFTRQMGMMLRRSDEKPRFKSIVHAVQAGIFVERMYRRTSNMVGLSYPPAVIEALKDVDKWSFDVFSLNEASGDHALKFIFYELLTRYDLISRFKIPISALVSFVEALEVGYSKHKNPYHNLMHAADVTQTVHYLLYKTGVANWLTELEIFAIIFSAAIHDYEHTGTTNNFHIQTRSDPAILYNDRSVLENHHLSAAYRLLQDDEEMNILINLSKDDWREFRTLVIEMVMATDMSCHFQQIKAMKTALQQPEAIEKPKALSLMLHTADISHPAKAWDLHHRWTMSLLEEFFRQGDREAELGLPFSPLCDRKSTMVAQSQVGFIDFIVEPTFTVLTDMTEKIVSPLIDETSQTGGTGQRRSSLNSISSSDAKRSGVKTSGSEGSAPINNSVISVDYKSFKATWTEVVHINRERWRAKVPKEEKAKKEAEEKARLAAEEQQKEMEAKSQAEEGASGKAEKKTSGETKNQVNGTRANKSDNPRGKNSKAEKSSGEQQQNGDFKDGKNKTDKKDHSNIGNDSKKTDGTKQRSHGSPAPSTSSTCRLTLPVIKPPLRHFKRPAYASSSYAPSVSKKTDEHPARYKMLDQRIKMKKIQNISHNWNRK
# Chain of PDE4A (P27815 whole entry, species assumed): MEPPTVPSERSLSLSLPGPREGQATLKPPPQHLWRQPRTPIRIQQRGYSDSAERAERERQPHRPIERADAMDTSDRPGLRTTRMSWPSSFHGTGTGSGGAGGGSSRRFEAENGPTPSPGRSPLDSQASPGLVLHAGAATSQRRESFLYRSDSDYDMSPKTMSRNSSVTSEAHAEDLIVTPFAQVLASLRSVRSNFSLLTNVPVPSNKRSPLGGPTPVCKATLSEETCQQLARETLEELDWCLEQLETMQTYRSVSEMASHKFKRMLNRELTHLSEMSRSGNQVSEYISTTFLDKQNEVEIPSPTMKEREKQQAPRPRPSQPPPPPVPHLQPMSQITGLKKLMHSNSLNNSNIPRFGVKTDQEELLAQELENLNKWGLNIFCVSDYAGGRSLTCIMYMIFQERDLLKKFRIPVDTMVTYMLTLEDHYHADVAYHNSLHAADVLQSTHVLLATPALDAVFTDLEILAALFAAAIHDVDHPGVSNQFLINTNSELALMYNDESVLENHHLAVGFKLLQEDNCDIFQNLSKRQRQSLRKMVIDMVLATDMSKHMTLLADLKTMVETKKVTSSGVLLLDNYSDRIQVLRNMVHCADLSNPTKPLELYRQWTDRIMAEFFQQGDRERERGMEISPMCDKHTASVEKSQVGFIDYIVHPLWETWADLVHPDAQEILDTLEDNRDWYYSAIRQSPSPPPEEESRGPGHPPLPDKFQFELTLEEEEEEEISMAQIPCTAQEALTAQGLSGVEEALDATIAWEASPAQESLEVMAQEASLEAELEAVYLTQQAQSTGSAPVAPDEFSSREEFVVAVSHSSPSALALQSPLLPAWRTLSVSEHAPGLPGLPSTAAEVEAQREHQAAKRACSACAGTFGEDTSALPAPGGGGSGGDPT
# Chain of PDE11A (Q9HCR9 whole entry, species assumed): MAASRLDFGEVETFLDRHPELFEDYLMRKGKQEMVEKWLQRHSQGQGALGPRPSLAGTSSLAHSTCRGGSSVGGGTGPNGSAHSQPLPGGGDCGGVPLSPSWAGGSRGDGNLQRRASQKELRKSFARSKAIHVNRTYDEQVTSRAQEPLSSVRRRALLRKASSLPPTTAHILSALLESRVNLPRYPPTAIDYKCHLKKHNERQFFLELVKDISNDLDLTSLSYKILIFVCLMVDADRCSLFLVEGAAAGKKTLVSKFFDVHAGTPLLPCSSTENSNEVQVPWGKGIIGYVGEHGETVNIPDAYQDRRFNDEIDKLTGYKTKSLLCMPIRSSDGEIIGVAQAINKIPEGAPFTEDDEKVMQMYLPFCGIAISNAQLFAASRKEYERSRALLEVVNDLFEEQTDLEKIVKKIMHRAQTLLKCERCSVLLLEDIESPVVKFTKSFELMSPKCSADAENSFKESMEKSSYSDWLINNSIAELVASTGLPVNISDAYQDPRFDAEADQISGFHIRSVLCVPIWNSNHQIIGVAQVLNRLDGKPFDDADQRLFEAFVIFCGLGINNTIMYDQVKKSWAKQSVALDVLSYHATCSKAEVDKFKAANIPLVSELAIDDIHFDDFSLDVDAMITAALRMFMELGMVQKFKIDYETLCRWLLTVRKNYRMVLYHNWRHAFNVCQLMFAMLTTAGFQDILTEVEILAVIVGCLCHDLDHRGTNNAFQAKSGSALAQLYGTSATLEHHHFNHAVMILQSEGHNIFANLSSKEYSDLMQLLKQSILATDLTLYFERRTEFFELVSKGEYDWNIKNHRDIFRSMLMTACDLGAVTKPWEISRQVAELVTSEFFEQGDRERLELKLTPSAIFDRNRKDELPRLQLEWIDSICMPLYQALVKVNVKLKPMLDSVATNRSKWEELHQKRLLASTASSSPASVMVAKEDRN
structure (smiles),measurement,setting,value
CN1C(=O)c2c(nn(Cc3ccc(-c4cccc(F)n4)cc3)c2Nc2ccccc2)N2C1=N[C@@H]1CCC[C@@H]12 [ITI-214],striatal cGMP levels,[1],increased cyclic nucleotide levels
"C[C@H](CCC(=O)O)C[C@H](C)C[C@H](C)C(=O)/C=C(\O)[C@H](C)C[C@H](C)C/C=C/[C@@H](C)[C@@H](O)[C@@H](C)[C@@H](O)C[C@@H]1CC[C@@](C)([C@H]2CC[C@@](C)([C@@H](C)O)O2)O1 [Ionomycin, ionomycin]",calcium-sensitive phosphorylation of CaMKII,[2],increased
same,striatal cGMP levels,[3],did not lead to elevated cGMP levels
O=C(O)CN(CCOCCOCCN(CC(=O)O)CC(=O)O)CC(=O)O [EGTA],IC50,"[4]; Compound 2 1.5 nM, mouse cortex, read-out: IC50 for decrease of specific binding of Compound 2",7.7 µM
same,binding of the radioligand in the presence of EGTA,"[4]; FIG. 4, mouse cortex",prevented
same,binding activity remaining relative to absence of EGTA,"[4]; excess (200 uM) EGTA, mouse cortex",approximately 5%
"CN1C(=O)c2c(nn(Cc3ccc(C4CCCN4C)cc3)c2Nc2ccc(F)cc2)N2CC(C)(C)N=C12 (stereo not shown) [Compound 1, 3-((4-fluorophenyl)amino)-5,7,7-trimethyl-2-(4-(1-methylpyrrolidin-2-yl)benzyl)-7,8-dihydro-2H-imidazo[1,2-a]pyrazolo[4,3-e]pyrimidin-4(5H)-one]",Ki,[5],> 100 µM
same,Ratio PDEx/PDE1A,[5],">64,589"
same,Ratio PDEx/PDE1A,[6],"1,561"
same,Ki,[7],9.2 nM
same,Ratio PDEx/PDE1A,[7],5.9
same,Ki,[8],1.3 nM
same,Ratio PDEx/PDE1A,[8],0.85
same,Ki,[9],78.9 µM
same,Ratio PDEx/PDE1A,[9],"50,983"
same,Ki,[10],14.1 µM
same,Ki,[11],1 nM
same,Ki,[12],> 100 µM
same,Ratio PDEx/PDE1A,[12],">64,589"
same,Ki,[13],48.9 µM
same,Ratio PDEx/PDE1A,[13],"31,595"
same,Ratio PDEx/PDE1A,[14],0.67
same,Ki,[15],42.9 µM
same,Ratio PDEx/PDE1A,[15],"27,687"
same,Ratio PDEx/PDE1A,[16],"9,122"
same,Ki,[17],> 100 µM
same,Ratio PDEx/PDE1A,[17],">64,589"
same,Ki,[18],1.5 nM
same,Ratio PDEx/PDE1A,[18],1
same,Ki,[19],13.1 µM
same,Ratio PDEx/PDE1A,[19],"8,448"
same,Ki,[20],40.7 µM
same,Ratio PDEx/PDE1A,[20],"26,289"
same,Ki,[21],2400 nM
same,Ki,[22],6.6 µM
same,Ratio PDEx/PDE1A,[22],"4,263"
same,selectivity toward all other PDE families,[23],> 1000 fold

# Source: patent US20220184240A1, “ORGANIC COMPOUNDS” (INTRA-CELLULAR THERAPIES, INC., priority 2019, published 2022)
